The source of these data is US11285135B2 (AMGEN INC., priority 2016, dated 2022).

For assay [1], the target named is GDP-bound protein (aa 1-169), containing both G12C and C118A amino acid substitutions (Homo sapiens, UniProt P01116, C118A/G12C). Nature of the assay: Coupled Nucleotide Exchange Assay (SOS-mediated nucleotide exchange, AlphaScreen). It counts as biochemical. Conditions: 2 hours compound pre-incubation. In a few lines:
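His-tagged GDP-bound […] (aa 1-169, G12C/C118A) pre-incubated 2 h with compound titration in 25 mM HEPES pH 7.4, 10 mM MgCl2, 0.01% Triton X-100.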

The test system of assay [2] is Phosphorylation of ERK½ in MIA PaCa-2 cells. Briefly: Phospho-ERK½ MSD Assay in MIA PaCa-2 cells. It counts as cell-based. Conditions: 4 hours compound treatment, 10 ng/mL EGF for 10 min, read-out: p-ERK IC50 (MIA PaCa-2). As for the experimental part: (§1) Phospho-ERK½ MSD Assay: MIA PaCa-2 (ATCC® CRL-1420™) and A549 (ATCC® CCL-185™) cells were cultured in RPMI 1640 Medium (ThermoFisher Scientific 11875093) containing 10% fetal bovine serum (ThermoFisher Scientific 16000044) and 1× penicillin-streptomycin-glutamine (ThermoFisher Scientific 10378016). Sixteen hours prior to compound treatment, MIA PaCa-2 or A549 cells were seeded in 96-well cell culture plates at a density of 25,000 cells/well and incubated at 37° C., 5% CO2. A compound dose-response titration was diluted in growth media, added to appropriate wells of a cell culture plate, and then incubated at 37° C., 5% CO2 for 4 hours. Following compound treatment, cells were stimulated with 10 ng/mL EGF (Roche 11376454001) for 10 min, washed with ice-cold Dulbecco's phosphate-buffered saline, no Ca^2+ or Mg^2+ (ThermoFisher Scientific 14190144), and then lysed in RIPA buffer (50 mM Tris-HCl pH 7.5, 1% Igepal, 0.5% sodium deoxycholate, 150 mM NaCl, and 0.5% sodium dodecyl sulfate) containing protease inhibitors (Roche 4693132001) and phosphatase inhibitors (Roche 4906837001). Cell lysates were stored frozen at −80° C. overnight. Phosphorylation of ERK½ in compound-treated lysates was assayed using Phospho-ERK½ Whole Cell Lysate kits (Meso Scale Discovery K151DWD) according to the manufacturer's protocol. Assay plates were read on a Meso Scale Discovery Sector Imager 6000, and data were analyzed using a 4-parameter logistic model to calculate IC50 values.

The test system of assay [3] is Phosphorylation of ERK½ in A549 cells. Nature of the assay: Phospho-ERK½ MSD Assay in A549 cells. The class given is cell-based. The conditions noted are these: 4 hours compound treatment, 10 ng/mL EGF for 10 min, read-out: p-ERK IC50 (A549). As for the experimental part: as §1
Setting [4] is: Homo sapiens, MIA PaCa-2, MIA PaCa-2 cells.

Read-outs that look alike come from different tables or passages of the source. Bounds are passed on as bounds.

Sequence of GDP-bound protein (aa 1-169), containing both G12C and C118A amino acid substitutions (P01116 1-169 isoform P01116-2 G12C/C118A): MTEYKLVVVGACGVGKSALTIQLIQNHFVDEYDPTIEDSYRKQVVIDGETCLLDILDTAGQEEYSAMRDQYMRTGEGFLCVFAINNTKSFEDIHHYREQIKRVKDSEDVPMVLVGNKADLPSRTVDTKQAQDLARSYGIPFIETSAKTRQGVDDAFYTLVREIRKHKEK

As for `C=CC(=O)N1CCN(c2snc3c(F)c(-c4cc(O)c(F)cc4F)c(Cl)cc23)CC1` [Example 3-10, 1-(4-(5-chloro-6-(2,4-difluoro-5-hydroxyphenyl)-7-fluoro-2,1-benzothiazol-3-yl)-1-piperazinyl)-2-propen-1-one], the “Coupled exchange IC50” value in assay [1] is 4.74 µM. Besides, the IC50 was determined as 66.4 µM in assay [2] (setting [4]) and 11.1 µM in assay [3] (Homo sapiens, A549, A549 cells).

With `C=CC(=O)N1CCN(c2snc3c(F)c(-c4cc(O)ccc4Cl)c(Cl)cc23)CC1` [Example 3-11, 1-(4-(5-chloro-6-(2-chloro-5-hydroxyphenyl)-7-fluoro-2,1-benzothiazol-3-yl)-1-piperazinyl)-2-propen-1-one], in assay [1], the “Coupled exchange IC50” value is 0.457 µM. The IC50 in assay [2] (setting [4]) came out at 3.06 µM; in assay [3] (Homo sapiens, A549, A549 cells), 11.1 µM.

As to `C=CC(=O)N1CCN(c2snc3c(F)c(-c4cc(O)cc5ccccc45)c(Cl)cc23)CC1` (single isomer, unassigned) [Example 3-1-2, 1-(4-(5-chloro-7-fluoro-6-(3-hydroxy-1-naphthalenyl)-2,1-benzothiazol-3-yl)-1-piperazinyl)-2-propen-1-one], the “Coupled exchange IC50” value in assay [1] was 0.302 µM. The IC50 in assay [2] (MIA PaCa-2 cells) was 2.35 µM; in assay [3] (A549 cells) it was above 100 µM.

With `C=CC(=O)N1CCN(c2snc3c(F)c(-c4c(C)ccc5[nH]ncc45)c(Cl)cc23)[C@H](C(F)F)C1` (racemic) [Example 2-8, 1-(4-(5-chloro-7-fluoro-6-(5-methyl-1H-indazol-4-yl)-2,1-benzothiazol-3-yl)-3-(difluoromethyl)-1-piperazinyl)-2-propen-1-one], the “Coupled exchange IC50” value in assay [1] is 0.361 µM. Moreover, the IC50 is 0.258 µM in assay [2] (setting [4]) and above 100 µM in assay [3] (Homo sapiens, A549, A549 cells).

On to `C=CC(=O)N1CCN(c2nc(=O)n(-c3ccccc3C(C)C)c3cc(-c4c(C)ccc5[nH]ncc45)c(Cl)cc23)[C@@H](C)C1` (single isomer, unassigned) [Example 11-2-1], for which the “Coupled exchange IC50” value in assay [1] amounted to 0.219 µM. In addition, the IC50 worked out at 0.054 µM in assay [2] (MIA PaCa-2 cells) and 10 µM in assay [3] (A549 cells).

Regarding `C=CC(=O)N1C[C@@H](C)N(c2snc3c(F)c(-c4cc(O)cc5ccccc45)c(Cl)cc23)[C@H](C)C1` (racemic) [Example 2-7, 1-(4-(5-chloro-7-fluoro-6-(3-hydroxy-1-naphthalenyl)-2,1-benzothiazol-3-yl)-3,5-dimethyl-1-piperazinyl)-2-propen-1-one], the “Coupled exchange IC50” value in assay [1] came to 1.08 µM. Further, the IC50 in assay [2] (setting [4]) is 3.87 µM; in assay [3] (Homo sapiens, A549, A549 cells) it was above 33.3 µM.

Regarding `C=CC(=O)N1CCN(c2nnc(-c3cnccc3C)c3cc(-c4c(O)cccc4F)c(Cl)cc23)CC1` [Example 10-6, 1-(4-(7-chloro-6-(2-fluoro-6-hydroxyphenyl)-4-(4-methyl-3-pyridinyl)-1-phthalazinyl)-1-piperazinyl)-2-propen-1-one], in assay [1], the “Coupled exchange IC50” value was determined as 1.20 µM. The concentration for half-maximal inhibition (IC50) in assay [2] (setting [4]) is 6.07 µM; in assay [3] (Homo sapiens, A549, A549 cells) it was above 100 µM.

Turning to `C=CC(=O)N1CCN(c2nc(=O)n(-c3ccccc3C(C)C)c3cc(-c4c(C)ccc5[nH]ncc45)c(Cl)cc23)CC1` (single isomer, unassigned) [Example 11-1-1, 6-chloro-7-(5-methyl-1H-indazol-4-yl)-1-(2-(2-propanyl)phenyl)-4-(4-(2-propenoyl)-1-piperazinyl)-2(1H)-quinazolinone], the “Coupled exchange IC50” value in assay [1] was 0.231 µM. Further, the IC50 in assay [2] (MIA PaCa-2 cells) was 0.247 µM; in assay [3] (Homo sapiens, A549, A549 cells) it was 42.9 µM.

Regarding `C=CC(=O)N1CCN(c2snc3cc(-c4cc(OC)cc5ccccc45)c(Cl)cc23)CC1` [Example 1-4, 1-(4-(5-chloro-6-(3-methoxy-1-naphthalenyl)-2,1-benzothiazol-3-yl)-1-piperazinyl)-2-propen-1-one], in assay [1], the “Coupled exchange IC50” value is above 10 µM. In addition, the IC50 in assay [2] (setting [4]) is above 100 µM; in assay [3] (Homo sapiens, A549, A549 cells), above 100 µM.

With `C=CC(=O)N1CCN(c2snc3nc(-c4cc(O)cc5ccccc45)c(Cl)cc23)C(C)C1` (single isomer, unassigned) [Example 2-5-2, 1-((3R)-4-(5-chloro-6-(3-hydroxy-1-naphthalenyl) [1,2]thiazolo[3,4-b]pyridin-3-yl)-3-methyl-1-piperazinyl)-2-propen-1-one or 1-((3S)-4-(5-ch1oro-6-(3-hydroxy-1-naphthalenyl) [1,2]thiazolo[3,4-b]pyridin-3-yl)-3-methyl-1-piperazinyl)-2-propen-1-one], the “Coupled exchange IC50” value in assay [1] came to 1.35 µM. The figures for the half-maximal inhibitory concentration (IC50) in assay [2] (MIA PaCa-2 cells) and in assay [3] (A549 cells) were 7.48 µM and 3.7 µM, respectively.

With `C=CC(=O)N1CCN(c2nc(=O)n(-c3cnccc3C3CC3)c3cc(-c4c(O)cccc4F)c(Cl)cc23)CC1` [Example 8-5, 6-chloro-1-(4-cyclopropyl-3-pyridinyl)-7-(2 fluoro-6-hydroxyphenyl)-4-(4-(2-propenoyl)-1-piperazinyl)-2(1H)-quinazolinone], the “Coupled exchange IC50” value in assay [1] stood at 0.400 µM. For the same compound, the IC50 in assay [2] (setting [4]) was 2.41 µM; in assay [3] (Homo sapiens, A549, A549 cells), above 100 µM.

On to `C=CC(=O)N1CCN(c2snc3c(F)c(-c4cc(O)cc5ccccc45)c(Cl)cc23)C(CCO)C1` (stereo in doubt) [Example 1-11, 1-((3S)-4-(5-chloro-7-fluoro-6-(3-hydroxy-1-naphthalenyl)-2,1-benzothiazol-3-yl)-3-(2-hydroxyethyl)-1-piperazinyl)-2-propen-1-one], for which the “Coupled exchange IC50” value in assay [1] is 0.695 µM. Besides, the IC50 in assay [2] (setting [4]) was 8.2 µM; in assay [3] (Homo sapiens, A549, A549 cells), above 100 µM.

Consider `C=CC(=O)N1CCN(c2nc(=O)n(-c3ccccc3C(C)C)c3cc(-c4c(C)ccc5[nH]ncc45)c(Cl)cc23)[C@@H](C)C1` (single isomer, unassigned) [Example 11-2-2], for which the “Coupled exchange IC50” value in assay [1] amounted to 0.256 µM. For the same compound, the concentration for half-maximal inhibition (IC50) in assay [2] (MIA PaCa-2 cells) was 0.006 µM; in assay [3] (A549 cells) it was 26.4 µM.

For the compound `C=CC(=O)N1CCN(c2nnc(Cc3ccc(F)cc3)c3cc(-c4c(O)cccc4F)c(Cl)cc23)CC1` [Example 29, 1-(4-(7-Chloro-4-(4-fluorobenzyl)-6-(2-fluoro-6-hydroxyphenyl)-1-phthalazinyl)-1-piperazinyl)-2-propen-1-one], the “Coupled exchange IC50” value in assay [1] stood at 3.76 µM. Further, the IC50 in assay [2] (setting [4]) is above 100 µM; in assay [3] (Homo sapiens, A549, A549 cells), above 100 µM.

For the compound `CN(C)C/C=C/C(=O)N1CCN(c2snc3c(F)c(-c4cc(O)cc5ccccc45)c(Cl)cc23)CC1` [Example 17-2, (2E)-1-(4-(5-chloro-7-fluoro-6-(3-hydroxy-1-naphthalenyl)-2,1-benzothiazol-3-yl)-1-piperazinyl)-4-(dimethylamino)-2-buten-1-one], the “Coupled exchange IC50” value in assay [1] is 1.02 µM. For the same compound, the IC50 in assay [2] (setting [4]) turned out to be 2.6 µM; in assay [3] (Homo sapiens, A549, A549 cells), 49.1 µM.

Turning to `C=CC(=O)N1CCN(c2nnc(C3CC3)c3cc(-c4c(O)cccc4F)c(Cl)cc23)CC1` [Example 12, 1-(4-(7-Chloro-4-cyclopropyl-6-(2-fluoro-6-hydroxyphenyl)-1-phthalazinyl)-1-piperazinyl)-2-propen-1-one], the “Coupled exchange IC50” value in assay [1] was found to be 3.34 µM. In addition, the 50% inhibitory concentration (IC50) is 25.9 µM in assay [2] (setting [4]) and above 100 µM in assay [3] (Homo sapiens, A549, A549 cells).

Take `C=CC(=O)N1CCN(c2nc(=O)n(-c3ccncc3C3CC3)c3cc(-c4c(C)ccc5[nH]ncc45)c(Cl)cc23)[C@@H](C)C1` [Example 9-9, 6-chloro-1-(3-cyclopropyl-4-pyridinyl)-7-(5-methyl-1H-indazol-4-yl)-4-((2S)-2-methyl-4-(2-propenoyl)-1-piperazinyl)-2(1H)-quinazolinone]: the “Coupled exchange IC50” value in assay [1] amounted to 0.147 µM. In addition, the IC50 in assay [2] (setting [4]) turned out to be 0.136 µM; in assay [3] (Homo sapiens, A549, A549 cells), 65.6 µM.

Take `C=CC(=O)N1CCN(c2snc3c(F)c(-c4cc(O)c(F)cc4Cl)c(Cl)cc23)CC1` [Example 3-18, 1-(4-(5-chloro-6-(2-chloro-4-fluoro-5-hydroxyphenyl)-7-fluoro-2,1-benzothiazol-3-yl)-1-piperazinyl)-2-propen-1-one]: the “Coupled exchange IC50” value in assay [1] came out at 2.60 µM. The IC50 was above 100 µM in assay [2] (setting [4]) and above 100 µM in assay [3] (Homo sapiens, A549, A549 cells).

Consider `C=CC(=O)N1CCN(c2snc3c(F)c(-c4cc(OC)ccc4Cl)c(Cl)cc23)CC1` [Example 3-9, 1-(4-(5-chloro-6-(2-chloro-5-methoxyphenyl)-7-fluoro-2,1-benzothiazol-3-yl)-1-piperazinyl)-2-propen-1-one], for which the “Coupled exchange IC50” value in assay [1] worked out at 3.37 µM. The IC50 is 9.25 µM in assay [2] (setting [4]) and above 33.3 µM in assay [3] (Homo sapiens, A549, A549 cells).

By IC50 is commonly meant the concentration that inhibits the measured activity by half.
